The target in series [1] is T1, APLP1 E2 (Homo sapiens, UniProt P51693).
T1 construct: E2 domain, residues 290-495, secreted from Pichia pastoris (pPICZalpha), N-glycosylated fraction removed; dimeric arrangement in crystal
T1 sequence (P51693 290-495): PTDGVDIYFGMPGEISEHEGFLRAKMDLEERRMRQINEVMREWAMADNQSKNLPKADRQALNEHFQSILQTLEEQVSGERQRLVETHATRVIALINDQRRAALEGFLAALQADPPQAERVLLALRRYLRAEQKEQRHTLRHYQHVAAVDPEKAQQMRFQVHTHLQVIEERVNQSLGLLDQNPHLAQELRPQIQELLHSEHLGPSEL
Put plainly: thermal denaturation (Thermofluor, SYPRO Orange). The series is classed as binding. The settings on record: 10 µM protein, 50 µM oligosaccharide, phosphate pH 5.7, 100 mM NaCl; reference Tm without ligand 43.6 ± 0.2 °C. (In general: Differential scanning fluorimetry follows unfolding on heating by fluorescence.)

The target of series [2] is T1, APLP1 E2. Put plainly: X-ray co-crystal structure, […] Å. The conditions noted are these: equimolar 0.5 mM; pH 6.1-6.3; two binding modes: chain a nonreducing end at dimer centre, chain b on one protomer.
Series [3] deals with the molecule itself. Kind of series: crystal structure; apo APLP1 E2, orthorhombic crystal form (P212121), 2.6 Å; crystals grown at 20°C in 0.1 M sodium citrate pH 5.6, 0.9 M (NH4)H2PO4, 25% glycerol; two molecules in the asymmetric unit.

As usually defined, the Tm is the temperature at which the thermal transition is half complete.

As for `O=C(O)C1=C[C@H](O)[C@@H](OS(=O)(=O)O)[C@H](O[C@H]2[C@H](O)[C@@H](NS(=O)(=O)O)[C@@H](O[C@H]3[C@H](O)[C@@H](OS(=O)(=O)O)[C@H](O[C@H]4[C@H](O)[C@@H](NS(=O)(=O)O)[C@@H](O[C@H]5[C@H](O)[C@@H](OS(=O)(=O)O)[C@H](O[C@H]6[C@H](O)[C@@H](NS(=O)(=O)O)[C@@H](O[C@H]7[C@H](O)[C@@H](OS(=O)(=O)O)[C@H](O[C@H]8[C@H](O)[C@@H](NS(=O)(=O)O)[C@@H](O[C@H]9[C@H](O)[C@@H](OS(=O)(=O)O)[C@H](O[C@H]%10[C@H](O)[C@@H](NS(=O)(=O)O)[C@@H](O[C@H]%11[C@H](O)[C@@H](OS(=O)(=O)O)[C@H](O[C@H]%12[C@H](O)[C@@H](NS(=O)(=O)O)[C@@H](O[C@H]%13[C@H](O)[C@@H](OS(=O)(=O)O)[C@H](O[C@H]%14[C@H](O)[C@@H](NS(=O)(=O)O)[C@@H](O[C@H]%15[C@H](O)[C@@H](OS(=O)(=O)O)[C@H](O[C@H]%16[C@H](O)[C@@H](NS(=O)(=O)O)C(O)O[C@@H]%16COS(=O)(=O)O)O[C@H]%15C(=O)O)O[C@@H]%14COS(=O)(=O)O)O[C@H]%13C(=O)O)O[C@@H]%12COS(=O)(=O)O)O[C@H]%11C(=O)O)O[C@@H]%10COS(=O)(=O)O)O[C@H]9C(=O)O)O[C@@H]8COS(=O)(=O)O)O[C@H]7C(=O)O)O[C@@H]6COS(=O)(=O)O)O[C@H]5C(=O)O)O[C@@H]4COS(=O)(=O)O)O[C@H]3C(=O)O)O[C@@H]2COS(=O)(=O)O)O1` (stereo partly drawn) [dp16], the Tm entry on APLP1 E2 [1] was “a slight stability increase of APLP1 was induced by chain lengths beyond eight sugar rings”.
`O=C(O)C1=C[C@H](O)[C@@H](OS(=O)(=O)O)[C@H](O[C@H]2[C@H](O)[C@@H](NS(=O)(=O)O)[C@@H](O[C@H]3[C@H](O)[C@@H](OS(=O)(=O)O)[C@H](O[C@H]4[C@H](O)[C@@H](NS(=O)(=O)O)[C@@H](O[C@H]5[C@H](O)[C@@H](OS(=O)(=O)O)[C@H](O[C@H]6[C@H](O)[C@@H](NS(=O)(=O)O)[C@@H](O[C@H]7[C@H](O)[C@@H](OS(=O)(=O)O)[C@H](O[C@H]8[C@H](O)[C@@H](NS(=O)(=O)O)C(O)O[C@@H]8COS(=O)(=O)O)O[C@H]7C(=O)O)O[C@@H]6COS(=O)(=O)O)O[C@H]5C(=O)O)O[C@@H]4COS(=O)(=O)O)O[C@H]3C(=O)O)O[C@@H]2COS(=O)(=O)O)O1` (stereo partly drawn) [dp8, heparin octasaccharide]: the Tm at APLP1 E2 [1] turned out to be 53.5 ± 0.5 °C.
As to `O=C(O)C1=C[C@H](O)[C@@H](OS(=O)(=O)O)[C@H](O[C@H]2[C@H](O)[C@@H](NS(=O)(=O)O)[C@@H](O[C@H]3[C@H](O)[C@@H](OS(=O)(=O)O)[C@H](O[C@H]4[C@H](O)[C@@H](NS(=O)(=O)O)C(O)O[C@@H]4COS(=O)(=O)O)O[C@H]3C(=O)O)O[C@@H]2COS(=O)(=O)O)O1` (stereo partly drawn) [dp4, heparin tetrasaccharide], the Tm at APLP1 E2 [1] worked out at 46.9 ± 0.3 °C.
For the molecule `O=C(O)C1=C[C@H](O)[C@@H](OS(=O)(=O)O)[C@H](O[C@H]2[C@H](O)[C@@H](NS(=O)(=O)O)[C@@H](O[C@H]3[C@H](O)[C@@H](OS(=O)(=O)O)[C@H](O[C@H]4[C@H](O)[C@@H](NS(=O)(=O)O)[C@@H](O[C@H]5[C@H](O)[C@@H](OS(=O)(=O)O)[C@H](O[C@H]6[C@H](O)[C@@H](NS(=O)(=O)O)[C@@H](O[C@H]7[C@H](O)[C@@H](OS(=O)(=O)O)[C@H](O[C@H]8[C@H](O)[C@@H](NS(=O)(=O)O)[C@@H](O[C@H]9[C@H](O)[C@@H](OS(=O)(=O)O)[C@H](O[C@H]%10[C@H](O)[C@@H](NS(=O)(=O)O)[C@@H](O[C@H]%11[C@H](O)[C@@H](OS(=O)(=O)O)[C@H](O[C@H]%12[C@H](O)[C@@H](NS(=O)(=O)O)C(O)O[C@@H]%12COS(=O)(=O)O)O[C@H]%11C(=O)O)O[C@@H]%10COS(=O)(=O)O)O[C@H]9C(=O)O)O[C@@H]8COS(=O)(=O)O)O[C@H]7C(=O)O)O[C@@H]6COS(=O)(=O)O)O[C@H]5C(=O)O)O[C@@H]4COS(=O)(=O)O)O[C@H]3C(=O)O)O[C@@H]2COS(=O)(=O)O)O1` (stereo partly drawn) [dp12, heparin dodecasaccharide], on APLP1 E2 [1], the Tm turned out to be 55.6 ± 0.5 °C. The “X-ray co-crystal structure, 2.5 Å” value at APLP1 E2 [2] was “coordinates of APLP1 E2 in complex with heparin”.

B1: APLP1 E2 domain (amyloid precursor protein-like protein 1, E2 domain) (domain or fragment, human, UniProt P51693 290-495, looked up)
chain: T1 sequence (P51693 290-495)
notes: E2 domain of human amyloid precursor protein-like protein 1 (APLP1), amino acids 290-495; Nonglycosylated fraction used; Two protomers in the asymmetric unit of both crystal forms; also called E2 domain of APLP1; apo APLP1 E2
B1: the binding result in series [3] is reported as “binds”.

The values above are taken from paper PMC4356362, “Interaction of the amyloid precursor protein-like protein 1 (APLP1) E2 domain with heparan sulfate involves two distinct binding modes” (Acta Crystallographica Section D: Biological Crystallography, 2015).
